Reference: ChEMBL document CHEMBL1201862, “PubChem BioAssay data set” (2004)
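Test compounds were applied to cells in 96-well plates for 48 hours at 5 doses. GI50: concentration for 50% inhibition of growth.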 Activity calls are given as the source filed them. No stated cut-off is given here; in the data, active = GI50 up to about 1.1 µM and inactive = higher.

Experiments:
Test in all cases: NCI tumour cell line growth inhibition, 48 h
HOP-62 = system: HOP-62
HOP-92 = system: HOP-92
LOX IMVI = system: LOX IMVI
RXF 393 = system: RXF 393
SF-539 = system: SF-539
SF-295 = system: SF-295
M19-MEL = system: M19-MEL
OVCAR-4 = system: OVCAR-4
RPMI-8226 = system: RPMI-8226
U-251 = system: U-251
LXFL 529 = system: LXFL 529
SR = system: SR
HL-60 = system: HL-60
COLO 205 = system: COLO 205
OVCAR-3 = system: OVCAR-3
XF498 = system: XF498
SNB-75 = system: SNB-75
SK-MEL-5 = system: SK-MEL-5
Malme-3M = system: Malme-3M
CAKI-1 = system: CAKI-1
DLD-1 = system: DLD-1
NCI-H460 = system: NCI-H460
A498 = system: A498
CCRF-CEM = system: CCRF-CEM
SK-OV-3 = system: SK-OV-3
HT-29 = system: HT-29
HCT-15 = system: HCT-15
NCI-H522 = system: NCI-H522
HCC 2998 = system: HCC 2998
KM-20L2 = system: KM-20L2
EKVX = system: EKVX
OVCAR-5 = system: OVCAR-5
TK-10 = system: TK-10
IGROV-1 = system: IGROV-1
786-0 = system: 786-0
ACHN = system: ACHN
KM12 = system: KM12
NCI-H226 = system: NCI-H226
M14 = system: M14
UO-31 = system: UO-31
HOP-18 = system: HOP-18
SN12C = system: SN12C
HCT-116 = system: HCT-116
SK-MEL-2 = system: SK-MEL-2
SW-620 = system: SW-620
NCI-H23 = system: NCI-H23
SK-MEL-28 = system: SK-MEL-28
OVCAR-8 = system: OVCAR-8
UACC-257 = system: UACC-257
A549 = system: A549
DMS-114 = system: DMS-114
MOLT-4 = system: MOLT-4
DMS-273 = system: DMS-273
UACC-62 = system: UACC-62
SNB-19 = system: SNB-19
K562 = system: K562
SF-268 = system: SF-268
SNB-78 = system: SNB-78

## COC(=O)/C(=N/NC(N)=O)C(C(=O)OC)C(=O)C(=O)Nc1ccc(Cl)cc1 (stereo not drawn)
HOP-62
  GI50: > 100 µM (inactive)
HOP-92
  GI50: > 100 µM (inactive)
LOX IMVI
  GI50: > 83.2 µM (inactive)
RXF 393
  GI50: > 100 µM (inactive)
SF-539
  GI50: > 100 µM (inactive)
SF-295
  GI50: > 100 µM (inactive)
M19-MEL
  GI50: > 100 µM (inactive)
OVCAR-4
  GI50: > 100 µM (inactive)
RPMI-8226
  GI50: > 100 µM (inactive)
U-251
  GI50: > 100 µM (inactive)
LXFL 529
  GI50: > 100 µM (inactive)
SR
  GI50: 20.8 µM (inactive)
HL-60
  GI50: > 76.2 µM (inactive)
COLO 205
  GI50: > 100 µM (inactive)
OVCAR-3
  GI50: > 100 µM (inactive)
XF498
  GI50: > 100 µM (inactive)
SNB-75
  GI50: > 100 µM (inactive)
SK-MEL-5
  GI50: > 100 µM (inactive)
Malme-3M
  GI50: > 100 µM (inactive)
CAKI-1
  GI50: > 100 µM (inactive)
DLD-1
  GI50: > 100 µM (inactive)
NCI-H460
  GI50: > 71.3 µM (inactive)
A498
  GI50: > 100 µM (inactive)
CCRF-CEM
  GI50: > 50.1 µM (inactive)
SK-OV-3
  GI50: > 100 µM (inactive)
HT-29
  GI50: > 100 µM (inactive)
HCT-15
  GI50: > 86.5 µM
NCI-H522
  GI50: > 100 µM (inactive)
HCC 2998
  GI50: > 100 µM (inactive)
KM-20L2
  GI50: > 100 µM (inactive)
EKVX
  GI50: > 100 µM (inactive)
OVCAR-5
  GI50: > 100 µM (inactive)
TK-10
  GI50: > 100 µM (inactive)
IGROV-1
  GI50: > 100 µM (inactive)
786-0
  GI50: > 100 µM (inactive)
ACHN
  GI50: > 100 µM (inactive)
KM12
  GI50: > 100 µM (inactive)
NCI-H226
  GI50: > 100 µM (inactive)
M14
  GI50: > 100 µM (inactive)
UO-31
  GI50: > 100 µM (inactive)
HOP-18
  GI50: > 100 µM (inactive)
SN12C
  GI50: > 100 µM (inactive)
HCT-116
  GI50: > 70.6 µM (inactive)
SK-MEL-2
  GI50: > 100 µM (inactive)
SW-620
  GI50: > 100 µM (inactive)
NCI-H23
  GI50: > 100 µM (inactive)
SK-MEL-28
  GI50: > 100 µM (inactive)
OVCAR-8
  GI50: > 100 µM (inactive)
UACC-257
  GI50: > 100 µM (inactive)
A549
  GI50: > 100 µM (inactive)
DMS-114
  GI50: > 71.8 µM (inactive)
MOLT-4
  GI50: > 100 µM (inactive)
DMS-273
  GI50: > 100 µM (inactive)
UACC-62
  GI50: > 100 µM (inactive)
SNB-19
  GI50: > 100 µM (inactive)
K562
  GI50: > 43.6 µM (inactive)

## COc1cc2cnc3c4ccccc4ccc3c2cc1OC
HOP-62
  GI50: > 100 µM (inactive)
SF-295
  GI50: > 100 µM (inactive)
M19-MEL
  GI50: > 100 µM (inactive)
OVCAR-4
  GI50: > 100 µM (inactive)
RPMI-8226
  GI50: > 100 µM (inactive)
U-251
  GI50: > 100 µM (inactive)
LXFL 529
  GI50: > 100 µM (inactive)
SF-268
  GI50: > 100 µM (inactive)
COLO 205
  GI50: > 100 µM (inactive)
OVCAR-3
  GI50: > 100 µM (inactive)
SNB-78
  GI50: > 100 µM (inactive)
XF498
  GI50: > 100 µM (inactive)
SNB-75
  GI50: > 100 µM (inactive)
SK-MEL-5
  GI50: > 100 µM (inactive)
Malme-3M
  GI50: > 100 µM (inactive)
CAKI-1
  GI50: > 100 µM (inactive)
DLD-1
  GI50: > 100 µM (inactive)
NCI-H460
  GI50: > 100 µM (inactive)
A498
  GI50: > 100 µM (inactive)
CCRF-CEM
  GI50: > 100 µM (inactive)
SK-OV-3
  GI50: > 100 µM (inactive)
HT-29
  GI50: > 100 µM (inactive)
NCI-H522
  GI50: > 100 µM (inactive)
HCC 2998
  GI50: > 100 µM (inactive)
KM-20L2
  GI50: > 100 µM (inactive)
EKVX
  GI50: 6.73 µM (inactive)
OVCAR-5
  GI50: > 100 µM (inactive)
TK-10
  GI50: > 100 µM (inactive)
IGROV-1
  GI50: > 100 µM (inactive)
786-0
  GI50: > 100 µM (inactive)
ACHN
  GI50: > 100 µM (inactive)
KM12
  GI50: > 100 µM (inactive)
M14
  GI50: > 100 µM (inactive)
UO-31
  GI50: > 100 µM (inactive)
SN12C
  GI50: > 100 µM (inactive)
SK-MEL-2
  GI50: > 100 µM (inactive)
SW-620
  GI50: > 100 µM (inactive)
NCI-H23
  GI50: > 100 µM (inactive)
SK-MEL-28
  GI50: > 100 µM (inactive)
OVCAR-8
  GI50: > 100 µM (inactive)
UACC-257
  GI50: > 100 µM (inactive)
A549
  GI50: > 100 µM (inactive)
DMS-114
  GI50: > 100 µM (inactive)
MOLT-4
  GI50: > 100 µM (inactive)
UACC-62
  GI50: > 100 µM (inactive)
SNB-19
  GI50: > 100 µM (inactive)
K562
  GI50: > 100 µM (inactive)
